# Assay results published in US20260258330A1, “USE OF AT LEAST ONE […] A BEVERAGE, IN […] ALCOHOLIC BEVERAGE, AS A […] […]” (priority 2023, published 2026).
# Read-outs that look alike come from different tables or passages of the source.
# Columns and labels:
# Saccharomyces cerevisiae [1] = format: cell-based
# Method: For this example, 10 mL of apple juice, grape juice or multifruit juice was inoculated with a strain of Saccharomyces cerevisiae at 60,000 cells per mL, that is a deposit of 17 μL of inoculum per 10 ml tube for Ci at T0=[…].
# These inoculated juices were incubated statically at 20° C., under subdued light, after having been pre-treated as follows: • 1. Untreated (Negative control) • 2. […] Ethanol 2.37% • 4. Ethanol 4.74% • 5. 100 ppm Chitosan • 6. 9 ppm Amphidinol 18 (AM18) • 7. 18 ppm Amphidinol 18 (AM18) • 8. 36 ppm Amphidinol 18 (AM18)
# The amphidinol concentration is obtained using the product according to the invention obtained from Example 1. The amount of product according to the invention is adjusted to obtain the desired amphidinol concentrations.
# The biomass of Saccharomyces populations was measured by optical density reading at 600 nm.
# [2] = system: Brettanomyces bruxellensis NL6300; assay: Minimum inhibitory concentration of peak 0 purified fraction, OD550 (Example 6); format: cell-based; conditions: all concentrations (40 to 5 ppm) except the 5 ppm concentration of AM18
# Method: The minimum inhibitory concentration of peak 0 (purified fraction) was determined for two strains of Brettanomyces bruxellensis (NL6293 and NL6300) according to the protocol described in Example 2 and FIG. 1B.
# OD550 nm at T=0 days, T=3 days and T=6 days was measured after incubation of yeasts at 28° C. in the presence of YPD medium alone (negative control), methanol or in the presence of peak 0 at dilutions ranging from 1:32 to 1:256 corresponding to concentrations of 40 to 5 ppm of amphidinol 18. The product according to the invention at 0.25 g/L was also tested (positive control). Two replicas were produced.
# Acetobacter aceti = assay: Minimum inhibitory concentration of peak 0 purified fraction, OD550 (Example 8); format: cell-based; conditions: 40, 20 and 10 pp: of AM18 (tested 40 to 5 ppm); MRS medium, 10^5 CFU/mL
# Method: The minimum inhibitory concentration (MIC) of peak 0 described in FIG. 5D was determined for Acetobacter aceti according to the protocol described in Example 2 and FIG. 1B.
# (§1) OD550 nm at 0, 3 and 6 days (T0, T3 and T6) was measured after incubation at 28° C. of yeasts at 10^5 CFU/mL in the presence of MRS medium alone (negative control), methanol (MEtOH) or in the presence of peak 0 at a dilution of 1:32 to 1:256 corresponding to concentrations of 40 to 5 ppm of amphidinol 18. The product according to the invention at 0.25 g/L was also tested under the same conditions. Two replicas (rep1 and rep2) were carried out.
# [3] = Degradation kinetics of amphidinol 18 in wine, HPLC (Example 10); format: physicochemical; conditions: product doses containing 60 ppm to 480 ppm amphidinol 18; up to day 44
# Method: Different doses of the product according to the invention, containing from 60 ppm to 480 ppm of amphidinol 18, were inoculated in the wine. The amount of amphidinol 18 was determined by HPLC assay over time, up to day 44 (T44). The percentage of amphidinol 18 with respect to the initial dose was assessed over time.
# [4] = system: three strains of Brettanomyces bruxellensis; assay: Growth of three Brettanomyces bruxellensis strains with product or inactivated product, optical density at 550 nm (Example 4); format: cell-based; conditions: conclusion from degradation and growth tests of Example 4
# Method: Two replicas were made for each condition.
# Yeast growth is measured by reading the optical density at 550 nanometers.
# [5] = Degradability of amphidinol 18 in light at room temperature, HPLC (Example 4); format: physicochemical; conditions: product at one gram per liter in 70% ethanol
# Source text: Regularly, the concentration of amphidinol 18 in the product according to the invention has been measured by high-performance liquid chromatography.
# Saccharomyces cerevisiae [6] = assay: Minimum inhibitory concentration of peak 0 purified fraction, OD550 (Example 7); format: cell-based; conditions: 40 and 20 ppm of AM18 (tested 40 to 5 ppm); 2.5·10^4 CFU/mL
# Method: The minimum inhibitory concentration (MIC) of peak 0 described in FIG. 5D was determined for Saccharomyces cerevisiae according to the protocol described in Example 2 and FIG. 1B.
# as §1, with “2.5·10^4” for “10^5”, “YPD” for “MRS”, “produced.” for “carried out.”
smiles,measurement,setting,value
"CCO [Ethanol, reference compound]",yeast population growth,Saccharomyces cerevisiae [1],no yeast population growth
C=C/C=C/CC/C=C/C=C/C=C/CC/C=C/[C@H](O)[C@H](O)[C@@H]1O[C@@H]([C@H](O)[C@H](O)C(=C)CC[C@@H](O)[C@H]2C[C@@H](O)[C@@H](O)[C@H]([C@@H](O)[C@H](O)/C=C(\C)CCC(O)CC(O)C(O)C(C)CC(O)C(O)CC(C)CCC(O)CC(=O)CC(O)CCCC(O)CCCCC(O)CO)O2)C[C@@H](O)[C@H]1O (stereo partly drawn) [amphidinol 18],effectiveness against strain NL6300,[2],effective
same,effectiveness against Acetobacter aceti,Acetobacter aceti,effective
same,degradation of amphidinol 18 in wine,[3],degrades steadily
same,effectiveness for controlling and/or limiting the growth of Brettanomyces bruxellensis,[4],particularly effective
same,amphidinol 18 concentration of the product,[5]; T=0 days,24 mg/L
same,amphidinol 18 concentration of the product,[5]; T=120 days,~0 mg/L
same,effectiveness against Saccharomyces cerevisiae,Saccharomyces cerevisiae [6],effective
same,growth of Saccharomyces populations,Saccharomyces cerevisiae [1]; 3 types of fruit juice,completely preventing the growth
same,"Average D0, optical density at 600 nm","Saccharomyces cerevisiae [1]; Apple juice, 9 ppm AM18",−0.1305
same,"Average D1, optical density at 600 nm","Saccharomyces cerevisiae [1]; Apple juice, 9 ppm AM18",−0.1655
same,"Average D2, optical density at 600 nm","Saccharomyces cerevisiae [1]; Apple juice, 9 ppm AM18",0.1385
same,"Average D3, optical density at 600 nm","Saccharomyces cerevisiae [1]; Apple juice, 9 ppm AM18",0.6495
same,"Average D0, optical density at 600 nm","Saccharomyces cerevisiae [1]; Apple juice, 18 ppm AM18",0.0835
same,"Average D1, optical density at 600 nm","Saccharomyces cerevisiae [1]; Apple juice, 18 ppm AM18",0.0055
same,"Average D2, optical density at 600 nm","Saccharomyces cerevisiae [1]; Apple juice, 18 ppm AM18",−0.0505
same,"Average D3, optical density at 600 nm","Saccharomyces cerevisiae [1]; Apple juice, 18 ppm AM18",−0.091
same,"Average D0, optical density at 600 nm","Saccharomyces cerevisiae [1]; Apple juice, 36 ppm AM18",−0.012
same,"Average D1, optical density at 600 nm","Saccharomyces cerevisiae [1]; Apple juice, 36 ppm AM18",−0.007
same,"Average D2, optical density at 600 nm","Saccharomyces cerevisiae [1]; Apple juice, 36 ppm AM18",−0.062
same,"Average D3, optical density at 600 nm","Saccharomyces cerevisiae [1]; Apple juice, 36 ppm AM18",0.3515
same,"Average D0, optical density at 600 nm","Saccharomyces cerevisiae [1]; Grape juice, 9 ppm AM18",0.0755
same,"Average D1, optical density at 600 nm","Saccharomyces cerevisiae [1]; Grape juice, 9 ppm AM18",0.0375
same,"Average D2, optical density at 600 nm","Saccharomyces cerevisiae [1]; Grape juice, 9 ppm AM18",0.0315
same,"Average D3, optical density at 600 nm","Saccharomyces cerevisiae [1]; Grape juice, 9 ppm AM18",−0.084
same,"Average D0, optical density at 600 nm","Saccharomyces cerevisiae [1]; Grape juice, 18 ppm AM18",0.2065
same,"Average D1, optical density at 600 nm","Saccharomyces cerevisiae [1]; Grape juice, 18 ppm AM18",0.175
same,"Average D2, optical density at 600 nm","Saccharomyces cerevisiae [1]; Grape juice, 18 ppm AM18",0.154
same,"Average D3, optical density at 600 nm","Saccharomyces cerevisiae [1]; Grape juice, 18 ppm AM18",0.0515
same,"Average D0, optical density at 600 nm","Saccharomyces cerevisiae [1]; Grape juice, 36 ppm AM18",−0.1485
same,"Average D1, optical density at 600 nm","Saccharomyces cerevisiae [1]; Grape juice, 36 ppm AM18",−0.174
same,"Average D2, optical density at 600 nm","Saccharomyces cerevisiae [1]; Grape juice, 36 ppm AM18",−0.2285
same,"Average D3, optical density at 600 nm","Saccharomyces cerevisiae [1]; Grape juice, 36 ppm AM18",−0.2465
same,"Average D0, optical density at 600 nm","Saccharomyces cerevisiae [1]; Multifruit juice, 9 ppm AM18",−0.006
same,"Average D1, optical density at 600 nm","Saccharomyces cerevisiae [1]; Multifruit juice, 9 ppm AM18",−0.028
same,"Average D2, optical density at 600 nm","Saccharomyces cerevisiae [1]; Multifruit juice, 9 ppm AM18",−0.0705
same,"Average D3, optical density at 600 nm","Saccharomyces cerevisiae [1]; Multifruit juice, 9 ppm AM18",0.0995
same,"Average D0, optical density at 600 nm","Saccharomyces cerevisiae [1]; Multifruit juice, 18 ppm AM18",0.002
same,"Average D1, optical density at 600 nm","Saccharomyces cerevisiae [1]; Multifruit juice, 18 ppm AM18",−0.0365
same,"Average D2, optical density at 600 nm","Saccharomyces cerevisiae [1]; Multifruit juice, 18 ppm AM18",−0.0155
same,"Average D3, optical density at 600 nm","Saccharomyces cerevisiae [1]; Multifruit juice, 18 ppm AM18",0.033
same,"Average D0, optical density at 600 nm","Saccharomyces cerevisiae [1]; Multifruit juice, 36 ppm AM18",−0.009
same,"Average D1, optical density at 600 nm","Saccharomyces cerevisiae [1]; Multifruit juice, 36 ppm AM18",0.034
same,"Average D2, optical density at 600 nm","Saccharomyces cerevisiae [1]; Multifruit juice, 36 ppm AM18",0.008
same,"Average D3, optical density at 600 nm","Saccharomyces cerevisiae [1]; Multifruit juice, 36 ppm AM18",0.018
